The target of assay [1] is T1, Retinoic acid receptor RXR-beta (Homo sapiens, UniProt P28702).
T1 sequence (P28702 whole entry): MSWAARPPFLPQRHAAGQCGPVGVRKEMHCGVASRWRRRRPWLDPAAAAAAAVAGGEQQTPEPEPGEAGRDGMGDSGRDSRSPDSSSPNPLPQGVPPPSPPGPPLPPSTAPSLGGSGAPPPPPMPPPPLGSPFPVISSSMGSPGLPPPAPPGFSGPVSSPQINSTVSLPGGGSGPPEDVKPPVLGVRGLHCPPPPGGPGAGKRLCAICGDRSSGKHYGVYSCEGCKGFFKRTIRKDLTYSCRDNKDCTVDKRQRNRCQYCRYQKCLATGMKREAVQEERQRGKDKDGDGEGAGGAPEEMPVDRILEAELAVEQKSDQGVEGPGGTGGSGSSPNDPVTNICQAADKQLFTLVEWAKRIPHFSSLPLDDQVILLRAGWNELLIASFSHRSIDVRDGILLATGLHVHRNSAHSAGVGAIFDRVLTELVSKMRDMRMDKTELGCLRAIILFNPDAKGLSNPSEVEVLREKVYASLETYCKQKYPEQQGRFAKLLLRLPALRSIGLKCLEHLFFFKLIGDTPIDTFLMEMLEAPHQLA
The experiment in a line: Binding affinity against retinoic Acid X beta receptor using [3H]- -9-cis-Retinoic Acid in competitive binding assay.

Assay [2] concerns the target T1, Retinoic acid receptor RXR-beta. The experiment in a line: Binding affinity against retinoic Acid X beta receptors co-transfected into CV-1 cells. The assay is classed as cell-based.
The target in assay [3] is T2, Retinoic acid receptor RXR-gamma (Homo sapiens, UniProt P48443).
T2 sequence (P48443 whole entry): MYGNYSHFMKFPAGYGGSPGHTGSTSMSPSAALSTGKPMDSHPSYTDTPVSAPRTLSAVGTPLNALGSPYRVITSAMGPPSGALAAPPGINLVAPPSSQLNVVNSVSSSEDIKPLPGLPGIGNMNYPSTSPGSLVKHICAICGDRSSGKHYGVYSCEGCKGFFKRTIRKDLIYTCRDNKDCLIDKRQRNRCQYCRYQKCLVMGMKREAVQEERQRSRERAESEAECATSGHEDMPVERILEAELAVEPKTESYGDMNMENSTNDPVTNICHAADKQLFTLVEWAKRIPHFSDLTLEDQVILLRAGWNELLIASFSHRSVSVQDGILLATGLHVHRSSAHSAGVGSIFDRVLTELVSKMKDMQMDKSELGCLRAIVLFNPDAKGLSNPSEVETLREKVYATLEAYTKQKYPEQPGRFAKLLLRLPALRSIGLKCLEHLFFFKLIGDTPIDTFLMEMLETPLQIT
The experiment in a line: Binding affinity against retinoic Acid X gamma receptor using [3H]- -9-cis-Retinoic Acid in competitive binding assay.

Assay [4] deals with T3, Retinoic acid receptor RXR-alpha (Homo sapiens, UniProt P19793).
T3 sequence (P19793 whole entry): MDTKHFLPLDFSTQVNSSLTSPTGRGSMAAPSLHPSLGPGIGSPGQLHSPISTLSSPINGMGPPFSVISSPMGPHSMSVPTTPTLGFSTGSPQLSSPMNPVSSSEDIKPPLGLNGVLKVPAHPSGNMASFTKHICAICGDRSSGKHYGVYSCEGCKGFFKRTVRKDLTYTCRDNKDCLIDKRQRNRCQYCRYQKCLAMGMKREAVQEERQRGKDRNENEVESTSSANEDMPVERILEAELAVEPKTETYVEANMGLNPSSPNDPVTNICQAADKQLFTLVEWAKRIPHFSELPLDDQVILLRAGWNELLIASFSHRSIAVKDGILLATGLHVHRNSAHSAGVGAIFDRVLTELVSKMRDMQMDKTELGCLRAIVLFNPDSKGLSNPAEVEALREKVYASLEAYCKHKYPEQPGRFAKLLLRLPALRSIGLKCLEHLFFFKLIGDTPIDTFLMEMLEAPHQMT
Briefly: Binding affinity against retinoic Acid X alpha receptors co-transfected into CV-1 cells. The format is cell-based.

In assay [5] the target is T2, Retinoic acid receptor RXR-gamma. The experiment in a line: Binding affinity against retinoic Acid X gamma receptors co-transfected into CV-1 cells. The assay is classed as cell-based.
Assay [6] addresses T3, Retinoic acid receptor RXR-alpha. Briefly: Binding affinity against retinoic Acid X alpha receptor using [3H]- -9-cis-Retinoic Acid in competitive binding assay.
Assay [7] has as its target T4, Retinoic acid receptor gamma (Homo sapiens, UniProt P13631).
T4 sequence (P13631 whole entry): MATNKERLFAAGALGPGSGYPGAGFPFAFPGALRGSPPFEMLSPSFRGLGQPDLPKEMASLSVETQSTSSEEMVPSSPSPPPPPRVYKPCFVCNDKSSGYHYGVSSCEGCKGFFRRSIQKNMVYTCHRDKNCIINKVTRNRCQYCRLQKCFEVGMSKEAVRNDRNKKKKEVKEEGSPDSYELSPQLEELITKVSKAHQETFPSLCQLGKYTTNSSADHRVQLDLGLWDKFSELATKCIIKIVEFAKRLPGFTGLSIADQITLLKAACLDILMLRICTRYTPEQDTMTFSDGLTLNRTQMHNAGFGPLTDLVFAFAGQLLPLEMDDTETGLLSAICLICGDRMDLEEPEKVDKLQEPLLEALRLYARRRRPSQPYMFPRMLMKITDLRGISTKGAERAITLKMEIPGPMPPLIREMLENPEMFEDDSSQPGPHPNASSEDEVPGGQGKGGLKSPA

Assay [8] deals with T5, Retinoic acid receptor beta (Homo sapiens, UniProt P10826).
T5 sequence (P10826 whole entry): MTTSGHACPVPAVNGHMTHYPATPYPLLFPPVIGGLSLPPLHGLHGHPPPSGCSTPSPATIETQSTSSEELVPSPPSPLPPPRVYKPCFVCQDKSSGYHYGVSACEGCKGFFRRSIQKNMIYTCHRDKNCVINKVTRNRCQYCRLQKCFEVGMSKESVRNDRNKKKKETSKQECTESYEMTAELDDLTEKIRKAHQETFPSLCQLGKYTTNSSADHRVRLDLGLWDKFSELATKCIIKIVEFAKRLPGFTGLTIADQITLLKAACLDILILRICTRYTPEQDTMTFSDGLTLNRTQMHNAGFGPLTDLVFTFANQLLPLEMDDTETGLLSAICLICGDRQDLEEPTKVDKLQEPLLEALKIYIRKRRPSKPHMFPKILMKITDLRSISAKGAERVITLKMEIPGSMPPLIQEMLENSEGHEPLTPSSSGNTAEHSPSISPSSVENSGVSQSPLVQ
The experiment in a line: Binding affinity against retinoic Acid beta receptor using [3H]- -9-cis-Retinoic Acid in competitive binding assay.

Assay [9] concerns the target T6, Retinoic acid receptor alpha (Homo sapiens, UniProt P10276).
T6 sequence (P10276 whole entry): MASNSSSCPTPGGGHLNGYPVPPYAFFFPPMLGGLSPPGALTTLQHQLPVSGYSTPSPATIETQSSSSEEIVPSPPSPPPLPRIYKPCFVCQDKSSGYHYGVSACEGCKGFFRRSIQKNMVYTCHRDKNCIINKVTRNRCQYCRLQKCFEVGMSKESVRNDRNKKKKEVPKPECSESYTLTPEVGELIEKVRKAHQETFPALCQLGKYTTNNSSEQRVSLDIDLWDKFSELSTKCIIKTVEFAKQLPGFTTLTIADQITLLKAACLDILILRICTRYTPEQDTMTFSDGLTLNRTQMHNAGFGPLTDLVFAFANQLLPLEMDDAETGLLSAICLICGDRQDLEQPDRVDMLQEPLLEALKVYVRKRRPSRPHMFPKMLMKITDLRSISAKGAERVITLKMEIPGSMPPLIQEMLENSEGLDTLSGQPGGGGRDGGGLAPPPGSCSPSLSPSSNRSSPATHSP
Briefly: Binding affinity against retinoic Acid alpha receptors co-transfected into CV-1 cells. The assay is classed as cell-based.

In assay [10] the target is T5, Retinoic acid receptor beta. The experiment in a line: Binding affinity against retinoic Acid beta receptors co-transfected into CV-1 cells. The assay is classed as cell-based.
Assay [11] concerns the target T6, Retinoic acid receptor alpha. Briefly: Binding affinity against retinoic Acid alpha receptor using [3H]- -9-cis-Retinoic Acid in competitive binding assay.
Assay [12] has as its target T4, Retinoic acid receptor gamma. This is another data set of the same source.
Description: Binding affinity against retinoic Acid gamma receptors co-transfected into CV-1 cells

As to `C/C(=C\c1ccc(C(=O)O)cc1)c1ccc2c(c1)C(C)(C)CCC2(C)C`, the half-maximal inhibitory concentration (IC50) in assay [1], in assay [3] and in assay [6] was more than 1000 nM throughout. Further, the 50% effective concentration (EC50) in assay [2], in assay [4] and in assay [5] was more than 10000 nM throughout.
With `C/C(=C\c1ccc(C(=O)O)cc1)c1cc2c(cc1C)C(C)(C)CCC2(C)C`, the 50% inhibitory concentration (IC50) (commonly the midpoint of a concentration-inhibition curve) in assay [7] is 645 nM; in assay [8], 1170 nM; in [1], more than 1000 nM; in assay [3] it was 100 nM; in assay [11], 638 nM; in assay [6] it was 32 nM. Further, the EC50 (commonly the concentration needed to bring the measured effect to its halfway point) is 1170 nM in [2]; 340 nM in assay [9]; 230 nM in assay [10]; 1200 nM in [4]; 1500 nM in assay [5]; 180 nM in [12].
As to `C/C(=C\c1ccc(C(=O)O)cc1)c1cc2c(cc1C(C)C)C(C)(C)CCC2(C)C`, the IC50 in [7] is more than 1000 nM; in assay [8], 150 nM; in [1] it was 50 nM; in assay [3], 10 nM; in assay [11] it was more than 1000 nM; in assay [6] it was 320 nM. Also, the half-maximal effective concentration (EC50) in [2] is more than 10000 nM; in [9], more than 10000 nM; in [10], more than 10000 nM; in [4], 300 nM; in [5] it was 2700 nM; in [12] it was 270 nM.
Take `CCc1cc2c(cc1/C(C)=C/c1ccc(C(=O)O)cc1)C(C)(C)CCC2(C)C`: the IC50 stood at 250 nM in assay [7]; 75 nM in assay [8]; 50 nM in assay [1]; 10 nM in assay [3]; 100 nM in assay [11]; 320 nM in [6]. The EC50 in assay [2] is 2000 nM; in assay [9], 1700 nM; in [10], 310 nM; in [4], 2900 nM; in assay [5], 2600 nM; in [12], 23 nM.
